For series [1] the following is noted: cited from earlier work.
A short description of series [2]: Crystallinity studies by x-ray diffraction (WAXS in transmission). It counts as physicochemical. The source says:
FIG. 2 crystallinity studies (WAXS in transmission) of the GGE active ingredient in the C16 spider silk protein formulations obtained by electrospinning compared to the pure substances (GGE or C16 powder);
FIG. 6 crystallinity studies (WAXS in transmission) of the clotrimazole active ingredient in the C16 spider silk protein formulations obtained by electrospinning compared to pure clotrimazole;
FIG. 9 crystallinity studies (WAXS in transmission) of the metazachlor active ingredient in the C16 spider silk protein formulations obtained by electrospinning compared to pure metazachlor;
FIG. 12 crystallinity studies (WAXS in transmission) of the Uvinul A+ active ingredient in the C16 spider silk protein formulations obtained by electrospinning compared to Uvinul A+ pure substance;
FIG. 16 crystallinity studies (WAXS in transmission) of the Uvinul A+ active ingredient in the R16 protein nonwoven (A) and S16 protein nonwoven (B) obtained by electrospinning compared to pure Uvinul A+;

≈ marks a conversion by molar mass, not a printed value. Read-outs that look alike come from different tables or passages of the source. Bounds are passed on as bounds.

For the compound `NC(=O)N1c2ccccc2C=Cc2ccccc21` [Carbamazipine], the Solubility in water in series [1] (RT) was 945.1 µg/mL (≈ 4000 µM).

Take `Cc1cccc(C)c1N(Cn1cccn1)C(=O)CCl` [metazachlor]: the “crystallinity of the active ingredient in x-ray diffraction” value in series [2] was “significant crystalline proportions”.

As for `Clc1ccccc1C(c1ccccc1)(c1ccccc1)n1ccnc1` [Clotrimazole], the Solubility in water in series [1] (25° C.) is below 10 µg/mL.

Values taken from patent publication US20140045695A1, “Continuous Fiber Layer Comprising an Active Substance on the Basis of Bio-polymers, the Use Thereof, and Method for the Production Thereof” (priority 2008, published 2014).
